Tested on: Escherichia coli isolate
Test: Digital same-sample filtration AST, one treated and one concurrent reference condition (Example 5)
Assay type: cell-based
Details: 1.0 μg/mL ETP; for lysed cells detected: all detected treated cells lysed
Procedure: The inoculum was small enough that no detectable difference in the sample's optical density at 600 mm (OD600) was detectable by a spectrophotometer with a sensitivity of 0.01 absorbance units. After an incubation at 37° C., the media became turbid with an OD600 of 0.18 absorbance units after 3 hours of incubation.
In this experiment, the number and volume of sample partitions was restricted, for logistical reasons, to 96 partitions 10 μL, in volume, specifically the wells of a 96-well plate. A goal was chosen of having a >98% chance of ending up with at least 48 empty partitions. When all partitions are the same volume, the following formula relates the expected number of empty partitions, the partition volume, and the density of cells.
N is the total number of partitions, n is the number of empty partitions, V is the partition volume, D is the density of cells, and t is a threshold probability chosen by the practitioner. Thus, in order to achieve digital sample partitioning with the available 96-well plate, the contrived clinical specimen was diluted to a cell density of 0.0375 cells/μL. Each 10 μL sample of the specimen would then contain 0.375 cells on average.
To begin the AST protocol, the contrived clinical specimen was physically split into the 96 partitions by transferring 10 μL of the sample, in 96 separate transfers (actually 12 transfers with a multichannel pipette), to 96 wells of a microtiter plate. Each well contained 15 μL of Mueller-Hinton Broth (MHB) growth media. Half of the wells (48) contained 0 μg/mL of dissolved ETP antibiotic and served as reference condition antibiotic exposures. The other half of the wells contained 1.67 μg/mL of ETP (for a final concentration of 1.0 μg/mL) and served as 48 treated condition antibiotic exposures. The 96 antibiotic exposures were incubated at 37° C. for 70 minutes.
The entire volume of each antibiotic exposure was transferred to a Millipore® 96-well sterile polystyrene MultiScreenHTS® filter plate (Millipore-Sigma MSGVS2210). Each well of the filter plate contained a hydrophilic polyvinylidene fluoride (PVDF) filter membrane with a 0.22 μm pore size. The antibiotic exposures were centrifuged at 2200 relative centrifugal force to speed the passage of the antibiotic exposure through the filter and into 96 collecting vessels. The collected fluid was called the “filtrate.”
50 μL of fresh MHB media was spun through the filters after the first centrifugation (above) to wash away residual extracellular nucleic acids present in the fluid wetting the filters. This wash fluid is not collected with the filtrates.
10 μL of each of the filtrates was added to and mixed with 10 μL of Lucigen DNA Extraction Buffer, heated to 65° C. for 6 minutes, then heated to 98° C. for 4 minutes.
20 μL of DNA Extraction Buffer was placed on top of the filters. The filter plate was heated to 65° C. for 6 minutes, shaking at 700 rpm, on a ThermoMixer® flat surface heating block. Then, the filter plate was taped to a clean 96-well polypropylene microtiter plate and centrifuged at 2000 rcf for 2 minutes. The DNA Extraction Buffer fluid that flowed through the filter was collected in the microtiter plate below the filter plate. Next, the microtiter plate was heated to 98° C. for 4 minutes inside a BioRad thermocycler. These collected and heated fluid volumes are termed the “lysates” which comprise intracellular nucleic acid.
Separately, for each of the 96 extracted filtrates and for each of the 96 extracted lysates, 1.00 μL of the extracted filtrate was mixed with 0.02 μL of 3 U/mL Lucigen® RapiDxFire thermostable reverse transcriptase, 0.2 μL of Lucigen® RapiDxFire 10× thermostable buffer, 0.1 μL of 10 mM deoxyribonucleic acid nucleotides, 0.6 μL of deionized water, and 0.08 μL of a 10 μM aqueous solution of DNA primer, according to manufacturer's instructions, to create a reverse transcription reaction with a total volume of 2.0 μL. […]

With `C[C@@H](O)[C@H]1C(=O)N2C(C(=O)O)=C(S[C@@H]3CN[C@H](C(=O)Nc4cccc(C(=O)O)c4)C3)[C@H](C)[C@H]12` [ETP, ertapenem] the “percent extracellular of detected antibiotic-treated cells (lysis)” value (70 minutes 37° C., qPCR 23S rRNA, 96 partitions) was 100%, the “susceptibility call (Fisher's exact test)” value (70 minutes, ddPCR) was “susceptible” and the “percent extracellular of detected antibiotic-treated cells (lysis)” value (70 minutes, ddPCR 23S rRNA, 56 of the 96 partitions) was 100%. The lysed cells detected (70 minutes, ddPCR, 56 of the 96 partitions) was 9, the “susceptibility call (Fisher's exact test)” value (70 minutes, qPCR) was “susceptible” and the lysed cells detected (70 minutes, qPCR, of the 96 partitions) was 19.

— US20220282304A1, “SAME-SAMPLE ANTIBIOTIC SUSCEPTIBILITY TEST AND RELATED COMPOSITIONS, METHODS AND SYSTEMS” (CALIFORNIA INSTITUTE OF TECHNOLOGY, priority 2021, published 2022)
